The molecules below were run on A549 cells (assay: Cell proliferation assay (CellTiter-Glo), cells with K-Ras G12S mutation). Conditions: Homo sapiens, ≤500 nM, read-out: Inhibition of A549 Cells (IC50).
Assay type: cell-based
Summary of the method: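 A549 (K-Ras G12S) cells in RPMI-1640 with 10% heat-inactivated FBS, plated in standard or ultra-low-attachment 384-well format, treated next day with a dilution series (e.g., 10-point, 3-fold). Viability read by CellTiter-Glo luminescence about 6 days later; IC50 from four-parameter fit.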

IC50, ≤ 500 nM:
CC(C)[C@H]1N(C(=O)n2cnc(F)n2)C[C@]12CC(CC#N)CN(c1nc(OC[C@@]34CCCN3C[C@H](F)C4)nc3c(F)c(-c4ccc(F)c5sc(N)c(C#N)c45)c(Cl)cc13)C2 (stereo partly drawn) [Compound 235, 2-amino-4-(6-chloro-4-((1R,4R)-8-(cyanomethyl)-2-(3-fluoro-1H-1,2,4-triazole-1-carbonyl)-1-isopropyl-2,6-diazaspiro[3.5]nonan-6-yl)-8-fluoro-2-(((2R,7aS)-2-fluorotetrahydro-1H-pyrrolizin-7a(5H)-yl)methoxy)quinazolin-7-yl)-7-fluorobenzo[b]thiophene-3-carbonitrile]
CN(C[C@@H]1CN(C(=O)n2cnc(C(F)F)n2)[C@@H]1C1CCC1)c1nc(OC[C@@]23CCCN2C[C@H](F)C3)nc2c(F)c(-c3ccc(F)c4sc(N)c(C#N)c34)c(Cl)cc12 [Compound 236, 2-amino-4-(6-chloro-4-((((2R,3R)-2-cyclobutyl-1-(3-(difluoromethyl)-1H-1,2,4-triazole-1-carbonyl)azetidin-3-yl)methyl)(methyl)amino)-8-fluoro-2-(((2R,7aS)-2-fluorotetrahydro-1H-pyrrolizin-7a(5H)-yl)methoxy)quinazolin-7-yl)-7-fluorobenzo[b]thiophene-3-carbonitrile]
CN(C[C@@H]1CN(C(=O)n2cnc(C#N)n2)[C@@H]1C1(C)CC1)c1nc(OC[C@@]23CCCN2C[C@H](F)C3)nc2c(F)c(-c3ccc(F)c4sc(N)c(C#N)c34)c(Cl)cc12 [Compound 237, 1-((2S,3R)-3-(((7-(2-amino-3-cyano-7-fluorobenzo[b]thiophen-4-yl)-6-chloro-8-fluoro-2-(((2R,7aS)-2-fluorotetrahydro-1H-pyrrolizin-7a(5H)-yl)methoxy)quinazolin-4-yl)(methyl)amino)methyl)-2-(1-methylcyclopropyl)azetidine-1-carbonyl)-1H-1,2,4-triazole-3-carbonitrile]
